Measured values taken from patent publication US10828275B2, “Selective targeting of procoagulant platelets” (NewSouth Innovations Pty Limited, priority 2014, dated 2020).
Residues, ends and D or L forms follow the SMILES beside them. *: point of attachment. Cbz = O=C(OCc1ccccc1)*; CH2F = FC*

What was measured:
washed human platelets [1] = assay: ABT-737 induced platelet apoptosis and pancaspase inhibition (flow cytometry); assay type: cell-based
Description: FIG. 4. Labeling with GSAO and exposure of P-selectin distinguishes necrotic from apoptotic platelets. […] The percentage of GSAO+ platelets are graphed with respect to P-selectin exposure. C. Washed human platelets were preincubated with 200 μM of ZVADFMK or vehicle control for 15 min then incubated with 30 μM of ABT-737 for 2 h (part F), or stimulated with thrombin (0.1 units/mL) and collagen (5 μg/mL) for 10 min (part G). Labeling with GSAO-AF647 and exposure of P-selection was measured by flow cytometry. D. Washed human platelets from healthy donors (n=5-11) were untreated or stimulated with thrombin (0.1 units/mL), collagen (5 μg/mL), or thrombin (0.1 units/mL) and collagen (5 μg/mL) for 10 min. […] The error bars are mean±SD.
Bcl-XL dependent apoptosis is involved in regulation of platelet life span, although the role of platelet apoptosis in thrombosis is controversial. In order to determine if GSAO can differentiate agonist-induced necrotic versus apoptotic platelets, platelet apoptosis was triggered using the BH3 mimetic ABT-737. GSAO labelled P-selectin negative apoptotic platelets (FIGS. 4A and B). The GSAO+ population also labeled with a polycaspase marker and annexin V, both indicators of apoptotic cells. […] Washed platelets from healthy donors were untreated or stimulated with thrombin, collagen or thrombin and collagen and examined for apoptosis (GSAO+/P-selectin−) and necrosis (GSAO+/P-selectin+) (FIG. 4D). These agonists trigger platelet necrosis but not apoptosis.

washed human platelets [2] = assay: Direct mitochondrial membrane depolarization and GSAO labelling; assay type: cell-based; settings: CCCP 4 μM
Description: FIG. 9. Mitochondrial membrane disruption is not sufficient for GSAO labeling.
The cyclophilin D-dependent regulated necrosis pathway is characterized by agonist stimulation, raised intracellular calcium, formation of the mitochondrial transition pore and loss of mitochondrial membrane potential. Dual agonist stimulation of platelets results in loss of mitochondrial transmembrane potential (FIG. 5A). The onset of mitochondrial depolarisation (FIG. 5B) and phosphatidylserine exposure (FIG. 5C) are coincident with GSAO labeling.
Mitochondrial membrane potential was measured using the JC-1 cationic dye (5,5′,6,6′-tetrachloro-1,1′,3,3′-tetraethyl-imidacarbocyanine iodide, Sigma) (Life Technologies). Washed platelets were incubated with JC-1 (2 μM) for 30 min in the dark at 37° C., washed once and analyzed immediately on a BDFACS Canto II. On some occasions, washed platelets were incubated with the mitochondrial membrane disrupter 2-[2-(3-chlorophenyl)hydrazinylyidene]propanedinitrile (CCCP, 4 μM) for 10 min.

[3] = tested on: P-selectin+ activated platelets; assay: DIDS effect on GSAO-AF647 labelling of agonist-stimulated platelets (flow cytometry); assay type: cell-based, human; settings: thrombin (0.1 units/mL) and collagen (5 μg/mL); 0-200 μM DIDS for 10 min; read-out: half-maximal concentration for inhibition of GSAO labelling of P-selectin+ activated platelets
Description: (§1) FIG. 2. GSAO rapidly enters the activated platelet subpopulation via an organic anion-transporting polypeptide. A. The kinetics of labeling of stimulated platelets with GSAO-AF647 was measured by time lapse flow cytometry. Flow plots are representative of n≥3 separate experiments, and bars and data points are from n≥3 separate experiments. *p<0.05, ****p<0.0001. B-C. […] DIDS inhibited GSAO labelling of P-selectin+ activated platelets at a half-maximal concentration of ˜30 μM. The data points and errors are the mean±range of 1-5 experiments.
The organic anion-transporting polypeptide (OATP) family has been implicated in transport across the plasma membrane of organic anions in the same class as GSAO (Dilda et al., 2009; Dilda et al., 2008). Nine members of the OATP family have been reported in humans (Hagenbuch et al., 2003) and platelets express OATP2B1 (Niessen et al., 2009). DIDS is an inhibitor of OATP class B transporters (Kobayashi et al. 2003) and the present inventors tested its effect on GSAO labelling of agonist-stimulated platelets. DIDS inhibited GSAO labelling of P-selectin+ activated platelets (FIG. 2B) at a half-maximal concentration of ˜30 μM (FIG. 2C). GSAO is retained in the platelet cytoplasm through covalent reaction with closely-spaced protein cysteine thiols (Park et al., 2011) (data not shown).

washed human platelets [4] = assay: GSAO-AF647 labelling of thrombin and collagen stimulated platelets after preincubation; assay type: cell-based; settings: CaCl2 preincubation 15 min
Description: FIG. 5. […] A. Washed human platelets were untreated or stimulated with thrombin (0.1 units/mL) and collagen (5 μg/mL) or the mitochondrial membrane disrupter CCCP (4 μM). Mitochondrial transmembrane potential was measured using the cationic dye, JC-1. The ratio of distribution of JC-1 between the mitochondria (red fluorescence) and cytosol (green fluorescence) reflects mitochondrial transmembrane potential. […] B-C. […] E. Washed human platelets were preincubated with CaCl2 for 15 min and then untreated or stimulated with thrombin (0.1 units/mL) and collagen (5 μg/mL).

washed human platelets [5] = assay: GSAO-AF647 labelling and P-selectin exposure of washed platelets (flow cytometry); assay type: cell-based; settings: thrombin 0.1 units/mL, collagen 5 μg/mL
Description: FIG. 1. GSAO labels a subpopulation of activated platelets. A. Structure of GSAO and site of conjugation of AF647, Oregon Green or biotin. B. Washed human platelets were stimulated with calcium ionophore (1 μM) and activation and plasma membrane compromise measured by flow cytometry. […] C. […] E. Washed human platelets were stimulated with collagen or collagen-related peptide and co-labeling with P-selectin and GSAO-AF647 measured by flow cytometry.
Calcium ionophore treatment of platelets leads to a sustained rise in intracellular calcium and surface elaboration of phosphatidylserine, which are features of both the procoagulant and necrotic phenotype (Bevers et al., 1982). Washed human platelets were treated with calcium ionophore and labeled with GSAO-AF647 and an antibody against the α-granule marker, P-selectin.
To determine whether GSAO labeling reflects this agonist profile, washed human platelets were stimulated with thrombin, collagen, or both thrombin and collagen. […] To determine if signalling through the collagen receptor, GPVI, was sufficient to generate the GSAO+ phenotype, the maximal proportion of GSAO+ platelets generated by collagen was compared with the GPVI specific activator, collagen related peptide.
The relationship between the activated and procoagulant phenotype of platelets remains controversial (Dale et al., 2002; Abaeva et al., 2013). Procoagulant platelets are characterised by presence of phosphatidylserine on the platelet surface, surface binding of plasma derived activated clotting factors, ability to generate thrombin and promotion of fibrin formation. Regardless of the agonist stimulus, 100% of GSAO+ platelets were positive for α-granule P-selectin, which implies that α-granule release is a prerequisite for GSAO labeling after agonist stimulation (FIG. 1). […] Of note, a subpopulation of GSAO− platelets also bound annexin V so platelet necrosis is not required for exposure of phosphatidylserine.

stimulated platelets = assay: Kinetics of GSAO-AF647 labelling by time lapse flow cytometry; assay type: cell-based, human
Description: as §1
The rate of GSAO+ platelet generation after agonist exposure was measured using time lapse flow cytometry. Results are reported for GSAO+ events based on lead in time prior to agonist exposure threshold.

[6] = tested on: platelets in human whole blood; assay: Whole blood assay for procoagulant platelet potential, human blood; assay type: cell-based; settings: for proportion of procoagulant platelets (GSAO+/P-selectin+): thrombin 2 U/mL, collagen 10 μg/mL, mean±SEM, 16-35 donors
Description: FIG. 12. Gating strategy for detection of procoagulant platelets in human whole blood. A. Platelets were identified as CD41a positive and CD45 negative events. B. Threshold values for P-selectin and GSAO fluorescence were set using agonist stimulated sample stained with control IgG isotype and GSCA respectively. C. At rest, very few platelets show the procoagulant phenotype (P-selectin+/GSAO+).
FIG. 13. Assay for procoagulant platelet potential in human blood. […] The maximal response (17.3±1.3%) was observed after stimulation with combination of thrombin and collagen. Results are mean±SEM from 16-35 donors. One-way ANOVA, […], Holm-Sidak multiple comparisons correction. *, p<0.05; ****, p<0.0001.
(§2) Blood from healthy human volunteers was drawn from an antecubital fossa vein using a 21-gauge needle into evacuated sterile collection tubes containing 0.109 M sodium citrate. Following no or minimal tourniquet application, the initial 2 mL of blood was discarded to avoid pre-analytical activation of platelets. The tube was gently mixed by inversion six times. Murine blood samples were collected by cardiac puncture under isoflurane anesthesia. Following midline abdominal and bilateral subcostal surgical incisions to expose the heart, blood was drawn from the left ventricle through a 25G needle into a 1 mL syringe containing sodium citrate (0.109 M) resulting in a blood to citrate ratio of 9:1. The needle was removed and the blood was gently expelled from the syringe into a sterile microcentrifuge tube and mixed gently by pipetting up and down 5 times.
Following collection, tubes were kept upright at room temperature and blood was assayed within 15 min of collection. Incubation and staining steps were performed in a sterile 96-well polypropylene plate. […]
(§3) Fixed cells were analyzed by flow cytometry 1 to 3 h after fixation at an average event rate of 2000 events per sec in an LSRFortessa flow cytometer, equipped with either four (405 nm, 488 nm, 561 nm and 640 nm) or five (395 nm) lasers (BD Biosciences). […]

platelets in mouse blood = assay: Whole blood assay for procoagulant platelet potential, mouse blood; assay type: cell-based; settings: thrombin 2 U/mL, CRP 500 ng/mL; n=3 C57Bl6 bloods
Description: FIG. 14. Assay for procoagulant platelet potential in mouse blood. […] Bars and errors are mean±SEM of n=3 C57B16 bloods. One-way ANOVA. **, p<0.01; ****, p<0.0001.
as §2
Following collection, tubes were kept upright at room temperature and blood was assayed within 15 min of collection. […]
as §3

CN(C)CC[C@H](CSc1ccccc1)Nc1ccc(S(=O)(=O)NC(=O)c2ccc(N3CCN(Cc4ccccc4-c4ccc(Cl)cc4)CC3)cc2)cc1[N+](=O)[O-] [ABT-737]
platelet phenotype induced (washed human platelets [1]; ABT-737 for 2 h): induced GSAO+/P-selectin− platelets

N#CC(C#N)=NNc1cccc(Cl)c1 [CCCP, 2-[2-(3-chlorophenyl)hydrazinylyidene]propanedinitrile]
GSAO labelling after direct mitochondrial membrane depolarization (washed human platelets [2]): does not result in GSAO labelling

O=S(=O)(O)c1cc(N=C=S)ccc1C=Cc1ccc(N=C=S)cc1S(=O)(=O)O [DIDS]
IC50 [3]: ~30 µM

COC(=O)C[C@H](NC(=O)[C@H](C)NC(=O)[C@@H](NC(=O)OCc1ccccc1)C(C)C)C(=O)CF [ZVADFMK] (Cbz-Val-Ala-Asp(OMe)-CH2F)
effect on ABT-737 induced GSAO+/P-selectin− platelets (washed human platelets [1]; 200 μM ZVADFMK 15 min, then 30 μM ABT-737 2 h): reduced
effect on GSAO labeling of thrombin and collagen stimulated platelets (washed human platelets [1]; 200 μM ZVADFMK 15 min, then agonists 10 min): no effect

[Ca] [calcium]
effect of added calcium on GSAO+ agonist stimulated platelets (washed human platelets [4]): promoted

collagen
GSAO+ platelets generated by agonist (washed human platelets [5]): moderate proportion
time course of GSAO labeling after agonist (stimulated platelets): gradual increase in GSAO labeling over 60 sec
proportion of procoagulant platelets (GSAO+/P-selectin+) [6]: 1.2±0.2%

collagen related peptide
GSAO+ platelets generated by agonist (washed human platelets [5]): majority of the collagen effect was recapitulated
potency as inducer of murine procoagulant platelets (platelets in mouse blood): significantly less potent than thrombin but synergizes with thrombin

thrombin
GSAO+ platelets generated by agonist (washed human platelets [5]): minimal GSAO+ platelets
time course of GSAO labeling after agonist (stimulated platelets): little GSAO labeling compared with unstimulated platelets
potency as inducer of procoagulant platelets in human blood [6]: most potent inducer
proportion of procoagulant platelets (GSAO+/P-selectin+) [6]: 13.2±1.1%
potency as inducer of murine procoagulant platelets (platelets in mouse blood): most potent inducer
